Active and inactive are the calls of the source.
Legend:
[1] = inhibition of mouse IRAP aminopeptidase activity – biochemical, Leu-AMC fluorescence, cherry-picked samples, set 2, selectivity assay for ERAP1 modulator project, dose response (AID 743340)
[2] = blockade of melanocortin 4 receptor signaling – cell-based, plate reader, cherry pick, counter-screen for LGR2 antagonist project, dose response (AID 743444); assay type: functional;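 further: transfected HEK 293 cells stimulated with alpha-MSH peptide; potency of inhibitors of the alpha-MSH evoked signal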
[3] = toxicity toward HepG2 liver cells – cell-based, plate reader, cherry-pick, antagonist series, cytotoxicity control, dose response (AID 743416); assay type: functional
[4] = A549 cell cytotoxicity, dose response, cytotoxicity control, plate reader, cherry-pick, antagonist series (AID 743412); assay type: functional, cell-based
[5] = blockers of bursicon-stimulated LGR2 cAMP reporter – cell-based, HEK293, CRE-luciferase reporter, cherry pick, set 2, dose response (AID 743343); assay type: functional;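 further: transfected cells were stimulated with diluted bursicon conditioned medium after compound addition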
[6] = target: T1, Trace amine-associated receptor 1 (Homo sapiens, UniProt Q96RJ0); experiment: Fluorescence-based cell-based high throughput dose response assay to identify antagonists of the human trace amine associated receptor 1 (TAAR1).; assay type: functional
T1 sequence (Q96RJ0 whole entry): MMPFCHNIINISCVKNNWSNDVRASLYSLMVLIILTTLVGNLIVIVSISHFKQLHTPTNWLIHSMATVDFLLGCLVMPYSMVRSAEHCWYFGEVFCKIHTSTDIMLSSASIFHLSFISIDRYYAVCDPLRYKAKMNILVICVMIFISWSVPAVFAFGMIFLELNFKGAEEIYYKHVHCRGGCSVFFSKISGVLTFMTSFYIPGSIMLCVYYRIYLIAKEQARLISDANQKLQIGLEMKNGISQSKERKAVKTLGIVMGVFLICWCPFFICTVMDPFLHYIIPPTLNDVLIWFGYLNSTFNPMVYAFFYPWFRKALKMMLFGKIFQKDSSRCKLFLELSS

[7] = target: T1, Trace amine-associated receptor 1; experiment: Counterscreen for antagonists of the human trace amine associated receptor 1 (hTAAR1): Fluorescence-based cell-based high throughput dose response assay to identify TAAR1 Agonists.; assay type: functional
[8] = Counterscreen for […] of the human trace amine associated receptor 1 (TAAR1): Fluorescence-based cell-based high throughput dose response assay to identify nonselective Ga16 agonists.; assay type: functional
[9] = Counterscreen for antagonists of the human trace amine associated receptor 1 (hTAAR1): Fluorescence-based cell-based high throughput dose response assay to identify nonselective Ga16 antagonists.; assay type: functional
[10] = target: Endoplasmic reticulum aminopeptidase 1 (Homo sapiens, UniProt Q9NZ08); experiment: inhibition of human ERAP1 enzyme activity – biochemical, cherry-pick, set 2, plate reader, dose response (AID 743314)
Endoplasmic reticulum aminopeptidase 1, sequence (Q9NZ08 whole entry): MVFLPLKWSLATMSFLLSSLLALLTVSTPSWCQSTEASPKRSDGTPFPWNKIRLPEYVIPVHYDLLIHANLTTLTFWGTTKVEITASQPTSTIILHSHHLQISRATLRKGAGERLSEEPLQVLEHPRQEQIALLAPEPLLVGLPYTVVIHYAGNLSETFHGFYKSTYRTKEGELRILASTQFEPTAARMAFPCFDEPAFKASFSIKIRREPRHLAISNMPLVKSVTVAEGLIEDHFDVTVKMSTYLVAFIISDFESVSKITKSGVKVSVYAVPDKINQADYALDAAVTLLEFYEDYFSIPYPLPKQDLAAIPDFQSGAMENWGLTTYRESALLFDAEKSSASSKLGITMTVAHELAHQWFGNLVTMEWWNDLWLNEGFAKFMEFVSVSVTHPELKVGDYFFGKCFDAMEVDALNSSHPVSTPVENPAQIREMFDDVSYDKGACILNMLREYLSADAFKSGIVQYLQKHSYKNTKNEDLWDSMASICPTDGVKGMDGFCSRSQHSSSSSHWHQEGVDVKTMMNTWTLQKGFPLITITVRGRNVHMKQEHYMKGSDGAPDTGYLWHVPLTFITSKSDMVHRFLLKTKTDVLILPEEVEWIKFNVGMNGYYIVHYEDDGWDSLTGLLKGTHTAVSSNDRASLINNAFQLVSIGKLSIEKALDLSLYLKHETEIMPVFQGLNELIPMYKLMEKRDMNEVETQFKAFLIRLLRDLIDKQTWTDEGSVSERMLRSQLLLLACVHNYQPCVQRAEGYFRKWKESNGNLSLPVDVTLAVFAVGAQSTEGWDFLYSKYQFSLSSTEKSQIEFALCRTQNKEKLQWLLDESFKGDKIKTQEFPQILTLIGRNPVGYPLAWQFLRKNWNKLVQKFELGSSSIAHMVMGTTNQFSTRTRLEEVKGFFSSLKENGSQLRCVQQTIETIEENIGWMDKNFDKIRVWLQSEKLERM

HeLa = experiment: viability loss in HeLa cells – cell-based, ATP luminescence, cherry-pick samples, cytotoxicity control, dose response (AID 687004); assay type: functional; conditions: Homo sapiens
[11] = COV434 cell viability loss – plate reader, dry powder, SA7, cytotoxicity control for PAX8 inhibitor project, dose response (AID 743145); assay type: functional, cell-based
[12] = toxicity toward immortalized ovarian surface epithelium – cell-based, plate reader, dry powder samples, cytotoxicity control for PAX8 inhibitor project, dose response (AID 743045); assay type: functional
[13] = IGROV1 cell killing – plate reader, dry powder samples, PAX8 inhibitor project, dose response (AID 743043); assay type: functional, cell-based; conditions: IGROV-1
[14] = OVCAR-3 cell viability loss – plate reader, dry powder samples, PAX8 inhibitor project, dose response (AID 743044); assay type: functional, cell-based
[15] = PAX8-dependent cell viability loss – plate reader, dry powder, dose response (AID 743049); assay type: functional, cell-based
[16] = OVCAR4 cell viability loss – plate reader, dry powder, SA11, cytotoxicity control for PAX8 inhibitor project, dose response (AID 743150); assay type: functional, cell-based; conditions: OVCAR-4
[17] = OV-90 cell viability loss – plate reader, dry powder, SA8, PAX8 inhibitor project, dose response (AID 743149); assay type: functional, cell-based
[18] = COV362 cell viability loss – plate reader, dry powder, SA12, cytotoxicity control for PAX8 inhibitor project, dose response (AID 743144); assay type: functional, cell-based
[19] = Counterscreen for inhibitors of Trypanosoma brucei methionyl tRNA synthetase (MetRS): Luminescence-based cell-based high throughput dose response assay to identify compounds that are cytotoxic to Jurkat human T lymphocyte cells.; assay type: functional
[20] = target: T2, Methionyl-tRNA synthetase, putative (Trypanosoma brucei brucei, UniProt Q38C91); assay type: functional, Trypanosoma brucei brucei strain 927/4 GUTat10.1
T2 sequence (Q38C91 whole entry): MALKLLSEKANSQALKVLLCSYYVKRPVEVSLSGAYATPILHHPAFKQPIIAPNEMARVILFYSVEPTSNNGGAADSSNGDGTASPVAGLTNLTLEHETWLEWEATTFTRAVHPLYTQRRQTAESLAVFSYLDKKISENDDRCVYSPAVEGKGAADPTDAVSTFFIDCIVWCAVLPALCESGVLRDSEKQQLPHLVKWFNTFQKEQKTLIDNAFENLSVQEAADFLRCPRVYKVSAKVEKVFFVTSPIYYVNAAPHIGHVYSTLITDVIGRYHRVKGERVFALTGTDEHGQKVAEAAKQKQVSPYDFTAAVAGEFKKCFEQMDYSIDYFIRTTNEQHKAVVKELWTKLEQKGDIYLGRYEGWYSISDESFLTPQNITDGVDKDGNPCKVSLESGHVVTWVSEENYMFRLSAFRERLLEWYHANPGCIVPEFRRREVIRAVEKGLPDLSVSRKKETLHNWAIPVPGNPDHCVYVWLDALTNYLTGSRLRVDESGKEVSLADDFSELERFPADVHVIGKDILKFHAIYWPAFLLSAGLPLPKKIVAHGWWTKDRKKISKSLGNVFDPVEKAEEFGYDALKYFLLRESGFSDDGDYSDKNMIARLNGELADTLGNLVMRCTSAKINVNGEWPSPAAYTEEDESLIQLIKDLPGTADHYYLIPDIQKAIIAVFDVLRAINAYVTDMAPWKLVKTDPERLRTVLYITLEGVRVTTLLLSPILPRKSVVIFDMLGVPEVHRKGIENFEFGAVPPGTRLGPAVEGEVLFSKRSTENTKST

[21] = Late stage counterscreen for inhibitors of Trypanosoma brucei methionyl tRNA synthetase (MetRS): Luminescence-based cell-based high throughput dose response assay to identify compounds that are cytotoxic to Jurkat human T lymphocyte cells.; assay type: functional
[22] = target: T2, Methionyl-tRNA synthetase, putative; assay type: functional, Trypanosoma brucei brucei strain 927/4 GUTat10.1; remark: listed apart in the source

**Q.** Which AC50 [1] does the source give for `COc1ccc(CN(C)C[C@@H]2OCCCC[C@@H](C)Oc3ccc(NS(=O)(=O)c4c(C)noc4C)cc3C(=O)N([C@@H](C)CO)C[C@@H]2C)cc1` here?
**A.** 16.2 µM (active)

**Q.** With `Cc1ccc2nc(-c3ccccc3)nn2c1` as the compound, how does the AC50 [2] read?
**A.** 3.56 µM (active)

**Q.** What about the AC50 [3] of the same compound?
**A.** > 52 µM (inactive)

**Q.** What about the AC50 [4] of the same compound?
**A.** > 52 µM (inactive)

**Q.** And the AC50 [5]?
**A.** 2.48 µM (active)

**Q.** What does the source list for `COC(=O)c1oc2c(c1C)C1(CCC2)SCCS1`?
**A.** IC50 [6]: 1.09 µM (active); EC50 [7]: > 29.9 µM (inactive); EC50 [8]: > 29.9 µM (inactive); IC50 [9]: > 29.9 µM (inactive)

**Q.** With `CC(C)(C)c1cc(N2CCOCC2)n2ncc(-c3ccccc3)c2n1` as the compound, how does the AC50 [10] read?
**A.** 14.2 µM (active)

**Q.** With `C[C@H](CO)N1C[C@H](C)[C@H](CN(C)Cc2ccccc2)Oc2cc(C#Cc3ccccn3)ccc2S1(=O)=O` as the compound, how does the AC50 (HeLa) read?
**A.** > 52 µM (inactive)

**Q.** Which AC50 [11] does the source give for `O=C(CCCN1C(=O)/C(=C\c2cccc(Br)c2)SC1=S)Nc1ccccn1` here?
**A.** 49.7 µM (active)

**Q.** And the AC50 [12]?
**A.** 68.5 µM (active)

**Q.** And the AC50 [13]?
**A.** 14.8 µM (active)

**Q.** And the AC50 [14]?
**A.** 18.9 µM (active)

**Q.** What about the AC50 [15] of the same compound?
**A.** 17.6 µM (active)

**Q.** And the AC50 [16]?
**A.** 42.7 µM (active)

**Q.** What about the AC50 [17] of the same compound?
**A.** 36.8 µM (active)

**Q.** And the AC50 [18]?
**A.** 46.2 µM (active)

**Q.** For `COc1cccc(NC(=O)CSc2n[nH]c3c4cc(C)ccc4nc-3n2)c1`, which IC50 [19] is on record?
**A.** 83.3 µM (inactive)

**Q.** And the IC50 [20]?
**A.** 48.3 nM (active)

**Q.** And the IC50 [21]?
**A.** > 83.3 µM (inactive)

**Q.** And the IC50 [22]?
**A.** 101 nM (active)

— ChEMBL document CHEMBL1201862, “PubChem BioAssay data set” (2004)
